Experimental data from ChEMBL document CHEMBL1201862, “PubChem BioAssay data set” (2004).
The source made the active and inactive calls. Rule as the data show it: actives have a measured IC50 and inactives only a lower limit.

Molecular target: Envelope glycoprotein gp160 (Human immunodeficiency virus 1, UniProt Q6QLK5)
Test: cell-free HIV fusion peptide-binding blockers – biochemical, uHTS, fluorescence dequenching, […] (AID 1986)

Chain of Envelope glycoprotein gp160 (Q6QLK5 whole entry, the tested form may be a part): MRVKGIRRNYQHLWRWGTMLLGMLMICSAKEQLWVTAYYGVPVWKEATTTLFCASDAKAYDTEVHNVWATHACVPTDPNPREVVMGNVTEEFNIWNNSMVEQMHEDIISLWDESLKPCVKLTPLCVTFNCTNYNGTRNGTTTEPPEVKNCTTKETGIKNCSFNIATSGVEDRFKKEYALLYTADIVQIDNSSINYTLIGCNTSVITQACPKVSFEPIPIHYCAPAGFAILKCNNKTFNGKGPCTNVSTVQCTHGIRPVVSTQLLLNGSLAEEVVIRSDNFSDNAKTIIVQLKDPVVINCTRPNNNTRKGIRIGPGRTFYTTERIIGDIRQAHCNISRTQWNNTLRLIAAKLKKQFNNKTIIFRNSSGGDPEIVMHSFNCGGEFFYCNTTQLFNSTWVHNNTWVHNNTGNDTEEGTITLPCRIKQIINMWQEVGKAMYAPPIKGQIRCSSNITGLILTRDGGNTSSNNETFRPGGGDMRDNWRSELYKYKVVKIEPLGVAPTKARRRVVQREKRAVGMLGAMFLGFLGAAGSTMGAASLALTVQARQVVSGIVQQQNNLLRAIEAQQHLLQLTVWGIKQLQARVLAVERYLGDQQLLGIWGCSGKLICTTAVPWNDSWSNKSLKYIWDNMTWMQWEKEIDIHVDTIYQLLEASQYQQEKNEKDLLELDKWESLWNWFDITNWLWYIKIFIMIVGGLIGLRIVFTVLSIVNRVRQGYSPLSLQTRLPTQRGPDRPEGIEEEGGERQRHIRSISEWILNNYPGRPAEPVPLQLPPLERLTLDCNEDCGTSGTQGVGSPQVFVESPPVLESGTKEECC

SMILES | IC50
CN(C)S(=O)(=O)c1cccc(-c2nn(-c3ccccc3)cc2/C=C2\SC(=S)N(CC(=O)O)C2=O)c1 | 15.3 µM (active)
CC1=C(C(=O)OC(C)C)C(c2ccc(Cl)cc2)n2c(s/c(=C\c3ccc(OCC(=O)O)cc3)c2=O)=N1 (configuration not stated) | 13.4 µM (active)
